Where two headings read alike, the source gives them in different places.
What was measured:
[1] = tested on: T1, SMS1 (sphingomyelin synthase 1); test: HPLC-fluorescence enzyme assay, ZS2 cell lysate; type: biochemical; details: 37 °C, 30 min preincubation
T1 construct: gene SGMS1; stably expressed in SMS1/SMS2-deficient mouse embryonic fibroblasts (ZS2), cell lysate
Description: HPLC-fluorescence enzyme assay, ZS2 cell lysate on SMS1 (sphingomyelin synthase 1)

[2] = tested on: T2, SMS2 (sphingomyelin synthase 2); test: HPLC-fluorescence enzyme assay, ZS2 cell lysate; type: biochemical; details: Path 2: 5 μM C6-NBD-ceramide to NBD-SM; 5 μM C6-NBD-PC present; 37 °C, 30 min preincubation
T2 construct: gene SGMS2; stably expressed in SMS1/SMS2-deficient mouse embryonic fibroblasts (ZS2), cell lysate
Description: HPLC-fluorescence enzyme assay, ZS2 cell lysate on SMS2 (sphingomyelin synthase 2)

| IC50 ([1]; read-out: IC50 (μM) / SMS1 / Path 1) [µM] | IC50 [2] [µM] | IC50 ([1]; Path 2: 5 μM C6-NBD-ceramide to NBD-SM, 5 μM C6-NBD-PC present) [µM] | Compound |
| --- | --- | --- | --- |
| 3 | 2.5 |  | CC(C)=CCC/C(C)=C/CC/C(C)=C/Cc1c(O)cc(C)c(C(=O)O)c1O [grifolic acid] |
|  | 3 | 0.6 | CC(C)=CCC/C(C)=C/CC/C(C)=C/Cc1c(O)cc(C)cc1O [grifolin] |
